Data as given in US12509424B2, “Compound and composition as PDGF receptor kinase inhibitor” (NIPPON SHINYAKU CO., LTD., priority 2019, dated 2025).
pIC50: −log10 of the molar value. Read-outs that look alike come from different tables or passages of the source.

How the values were obtained:
PDGFR-β = PDGFR-β (Homo sapiens (Human), UniProt P09619); assay: PDGFR-β tyrosine kinase inhibitory action (HTRF KinEASE-TK); type: biochemical; conditions: PDGFR-β enzyme 1 ng/μL, 30° C. for 30 minutes; read-out: PDGF-β IC50
Summary of the method: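 Recombinant PDGFR-β at 1 ng/μL final with TK substrate-3-biotin in a substrate solution containing 0.6 μM ATP; buffer 50 mM HEPES pH 7.0, 5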

[1] = biological target: TEL-PDGFRβ fusion gene transfected cells (Ba/F3); assay: Suppression of proliferation of TEL-PDGFRβ fusion gene transfected Ba/F3 cells; type: cell-based, human; conditions: TEL-PDGFRβ expressing Ba/F3 cells, 72 hours, final concentration 0.1 to 10,000 nM; read-out: PDGFR β/BaF3 proliferation inhibition (IC50)
Text: 2. Preparation of Test Substance
4. Analysis of Measurement Results

[2] = tested on: pulmonary arterial smooth muscle cells; assay: Suppression of proliferation of pulmonary arterial smooth muscle cells (PDGF-BB stimulation, BrdU); type: cell-based; conditions: PASMC, read-out: Human normal PASMC proliferation suppression (PDGF stimulation_IC50)
Summary of the method: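 Healthy human pulmonary arterial smooth muscle cells, serum-starved a day in 0.1% FBS medium, were treated with compound at final 3 to 10,000 nM plus human PDGF-BB (final 10 ng/mL) and BrdU. After 1 day of culture, BrdU uptake was measured with an anti-BrdU antibody.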

[3] = biological target: TEL-KIT fusion gene transfected cells (Ba/F3); assay: Suppression of proliferation of TEL-KIT fusion gene transfected Ba/F3 cells; conditions: read-out: KIT/BaF3 proliferation inhibition (IC50); TEL-KIT expressing Ba/F3 cells, 72 hours, final concentration 0.1 to 10,000 nM;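 also: viable cells quantified via formazan from tetrazolium reduction, inhibition scaled with 0.1% DMSO control as 0% and medium-only blank as 100%, IC50 from two-parameter logistic fit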
[4] = human PDGF-BB 10 ng/mL, BrdU uptake, final concentration 3 to 10,000 nM
[5] = 24 h, healthy human derived pulmonary arterial smooth muscle cells, human PDGF-BB 10 ng/mL stimulation, BrdU uptake after 1 day, test substance final concentration 3 to 10,000 nM

Chain of TEL-KIT fusion gene transfected cells (Ba/F3) (P10721 26-976 limits assumed, change not shown): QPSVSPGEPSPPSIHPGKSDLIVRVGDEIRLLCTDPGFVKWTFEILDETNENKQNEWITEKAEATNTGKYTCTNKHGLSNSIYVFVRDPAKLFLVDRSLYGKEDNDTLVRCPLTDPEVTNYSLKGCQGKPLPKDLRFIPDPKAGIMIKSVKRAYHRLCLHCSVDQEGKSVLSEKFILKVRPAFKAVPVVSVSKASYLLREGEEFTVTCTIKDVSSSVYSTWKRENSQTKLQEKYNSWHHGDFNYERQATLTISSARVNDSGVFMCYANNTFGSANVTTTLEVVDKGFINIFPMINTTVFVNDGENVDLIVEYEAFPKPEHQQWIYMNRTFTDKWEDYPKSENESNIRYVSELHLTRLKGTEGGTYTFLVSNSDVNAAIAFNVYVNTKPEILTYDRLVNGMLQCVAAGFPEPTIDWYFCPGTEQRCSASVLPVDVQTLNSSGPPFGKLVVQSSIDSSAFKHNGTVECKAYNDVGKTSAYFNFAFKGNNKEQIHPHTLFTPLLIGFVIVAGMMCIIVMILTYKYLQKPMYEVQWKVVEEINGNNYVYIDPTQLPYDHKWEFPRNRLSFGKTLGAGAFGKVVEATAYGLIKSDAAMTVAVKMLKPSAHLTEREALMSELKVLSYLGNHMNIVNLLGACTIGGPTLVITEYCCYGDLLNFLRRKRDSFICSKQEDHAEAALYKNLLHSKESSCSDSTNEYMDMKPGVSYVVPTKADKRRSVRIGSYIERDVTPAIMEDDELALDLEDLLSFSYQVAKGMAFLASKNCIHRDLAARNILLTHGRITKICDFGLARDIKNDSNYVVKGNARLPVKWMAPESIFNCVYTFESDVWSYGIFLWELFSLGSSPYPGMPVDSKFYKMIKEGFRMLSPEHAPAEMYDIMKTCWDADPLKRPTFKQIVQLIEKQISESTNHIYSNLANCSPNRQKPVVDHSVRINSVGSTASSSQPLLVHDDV
Chain of PDGFR-β (P09619 33-1106): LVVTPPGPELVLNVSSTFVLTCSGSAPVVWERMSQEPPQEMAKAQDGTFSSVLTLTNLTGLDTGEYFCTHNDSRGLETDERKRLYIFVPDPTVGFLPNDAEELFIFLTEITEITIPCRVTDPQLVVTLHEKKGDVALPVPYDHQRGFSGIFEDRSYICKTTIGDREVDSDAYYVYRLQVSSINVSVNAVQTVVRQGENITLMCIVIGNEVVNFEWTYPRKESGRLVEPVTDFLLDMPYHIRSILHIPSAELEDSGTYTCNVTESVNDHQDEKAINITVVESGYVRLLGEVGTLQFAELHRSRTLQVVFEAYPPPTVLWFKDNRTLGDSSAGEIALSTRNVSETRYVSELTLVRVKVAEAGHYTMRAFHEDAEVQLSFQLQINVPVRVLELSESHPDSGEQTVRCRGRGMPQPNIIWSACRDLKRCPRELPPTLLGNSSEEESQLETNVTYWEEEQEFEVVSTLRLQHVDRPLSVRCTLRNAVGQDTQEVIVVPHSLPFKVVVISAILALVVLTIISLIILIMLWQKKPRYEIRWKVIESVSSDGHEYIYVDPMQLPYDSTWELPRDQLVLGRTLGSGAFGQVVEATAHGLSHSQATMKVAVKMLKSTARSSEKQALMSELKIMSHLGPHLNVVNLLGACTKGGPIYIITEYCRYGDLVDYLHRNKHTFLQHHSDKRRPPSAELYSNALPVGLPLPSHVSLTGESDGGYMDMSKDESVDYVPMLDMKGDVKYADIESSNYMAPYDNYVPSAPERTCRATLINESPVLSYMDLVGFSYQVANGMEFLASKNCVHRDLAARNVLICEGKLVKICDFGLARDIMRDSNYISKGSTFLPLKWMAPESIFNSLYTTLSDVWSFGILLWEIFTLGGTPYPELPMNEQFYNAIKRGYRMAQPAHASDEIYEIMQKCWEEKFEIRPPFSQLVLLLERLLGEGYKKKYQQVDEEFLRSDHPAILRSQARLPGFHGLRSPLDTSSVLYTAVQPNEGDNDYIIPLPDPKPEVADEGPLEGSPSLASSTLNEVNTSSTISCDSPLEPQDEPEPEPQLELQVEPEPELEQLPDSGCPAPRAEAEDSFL
Chain of TEL-PDGFRβ fusion gene transfected cells (Ba/F3) (P09619 33-1106 limits assumed, change not shown): as the sequence (P09619 33-1106) above

SMILES | pIC50 (PDGFR-β) | pIC50 [1] | pIC50 [2, 4] | pIC50 [3] | pIC50 [2, 5]
Cc1ccc(C(=O)N[C@H]2CCCC[C@@H]2O)cc1NC(=O)c1cnc(NC2CC(F)(F)C2)s1 [Example 25, 2-[(3,3-difluorocyclobutyl)amino]-N-(5-{[(1S,2S)-2-hydroxycyclohexyl]carbamoyl}-2-methylphenyl)-1,3-thiazole-5-carboxamide] | 7.41 | 7.30 | 6.64 | < 5.00 | –
Cc1ccc(C(=O)N[C@H]2CCCC[C@@H]2O)cc1NC(=O)c1cnc(NCCC2CC2)s1 [Example 26, 2-[(2-cyclopropylethyl)amino]-N-(5-{[(1S,2S)-2-hydroxycyclohexyl]carbamoyl}-2-methylphenyl)-1,3-thiazole-5-carboxamide] | 8.34 | 8.03 | 7.60 | 6.34 | –
Cc1ccc(C(=O)N[C@H]2CCCC[C@@H]2O)cc1NC(=O)c1cnc(NC(C)C)s1 [Example 27, N-(5-{[(1S,2S)-2-hydroxycyclohexyl]carbamoyl}-2-methylphenyl)-2-[(propan-2-yl)amino]-1,3-thiazole-5-carboxamide] | 8.08 | 8.06 | 7.15 | 6.00 | –
Cc1ccc(C(=O)N[C@H]2CCCC[C@@H]2O)cc1NC(=O)c1cncc(OC2CCC(F)(F)CC2)c1 [Example 28, 5-[(4,4-difluorocyclohexyl)oxy]-N-(5-{[(1S,2S)-2-hydroxycyclohexyl]carbamoyl}-2-methylphenyl)pyridine-3-carboxamide] | 6.77 | 7.30 | 6.55 | 5.24 | –
Cc1ccc(C(=O)N[C@H]2CCCC[C@@H]2O)cc1NC(=O)c1cncc(-c2ccccc2F)c1 [Example 29, 5-(2-fluorophenyl)-N-(5-{[(1S,2S)-2-hydroxycyclohexyl]carbamoyl}-2-methylphenyl)pyridine-3-carboxamide] | 7.46 | 8.12 | – | 6.54 | 6.89
Cc1ccc(C(=O)N[C@H]2CCCC[C@@H]2O)cc1NC(=O)c1cncc(-c2cccc(F)c2F)c1 [Example 30, 5-(2,3-difluorophenyl)-N-(5-{[(1S,2S)-2-hydroxycyclohexyl]carbamoyl}-2-methylphenyl)pyridine-3-carboxamide] | 7.36 | 7.66 | – | 5.89 | 7.28
Cc1ccc(C(=O)N[C@H]2CCCC[C@@H]2O)cc1NC(=O)c1cncc(-c2ccc(F)cc2F)c1 [Example 31, 5-(2,4-difluorophenyl)-N-(5-{[(1S,2S)-2-hydroxycyclohexyl]carbamoyl}-2-methylphenyl)pyridine-3-carboxamide] | 7.14 | 8.10 | – | 6.00 | 7.00
Cc1ccc(C(=O)N[C@H]2CCCC[C@@H]2O)cc1NC(=O)c1cncc(-c2cc(F)cc(F)c2)c1 [Example 32, 5-(3,5-difluorophenyl)-N-(5-{[(1S,2S)-2-hydroxycyclohexyl]carbamoyl}-2-methylphenyl)pyridine-3-carboxamide] | 7.33 | 7.77 | – | 6.04 | 6.72
COc1ccc(-c2cncc(C(=O)Nc3cc(C(=O)N[C@H]4CCCC[C@@H]4O)ccc3C)c2)c(F)c1 [Example 33, 5-(2-fluoro-4-methoxyphenyl)-N-(5-{[(1S,2S)-2-hydroxycyclohexyl]carbamoyl}-2-methylphenyl)pyridine-3-carboxamide] | 7.72 | 7.10 | – | 6.06 | 7.17
Cc1ccc(C(=O)N[C@H]2CCCC[C@@H]2O)cc1NC(=O)c1cncc(-c2cccc(OC(F)(F)F)c2)c1 [Example 34, N-(5-{[(1S,2S)-2-hydroxycyclohexyl]carbamoyl}-2-methylphenyl)-5-[3-(trifluoromethoxy)phenyl]pyridine-3-carboxamide] | 7.72 | 8.10 | – | 6.27 | 6.89
Cc1ccc(C(=O)N[C@H]2CCCC[C@@H]2O)cc1NC(=O)c1cncc(-c2ccccc2OC(F)(F)F)c1 [Example 35, N-(5-{[(1S,2S)-2-hydroxycyclohexyl]carbamoyl}-2-methylphenyl)-5-[2-(trifluoromethoxy)phenyl]pyridine-3-carboxamide] | 6.80 | 7.77 | – | 5.66 | 6.49
Cc1ccc(C(=O)N[C@H]2CCCC[C@@H]2O)cc1NC(=O)c1cncc(-c2ccc(C(F)(F)F)cc2F)c1 [Example 36, 5-[2-fluoro-4-(trifluoromethyl)phenyl]-N-(5-{[(1S,2S)-2-hydroxycyclohexyl]carbamoyl}-2-methylphenyl)pyridine-3-carboxamide] | 6.89 | 7.60 | – | 5.46 | 7.04
Cc1ccc(C(=O)N[C@H]2CCCC[C@@H]2O)cc1NC(=O)c1cncc(-c2c(F)cccc2F)c1 [Example 37, 5-(2,6-difluorophenyl)-N-(5-{[(1S,2S)-2-hydroxycyclohexyl]carbamoyl}-2-methylphenyl)pyridine-3-carboxamide] | 7.48 | 8.29 | – | 6.33 | 7.34
Cc1ccc(C(=O)N[C@H]2CCCC[C@@H]2O)cc1NC(=O)c1cnc(NC(C)(C)C)s1 [Example 38, 2-(tert-butylamino)-N-(5-{[(1S,2S)-2-hydroxycyclohexyl]carbamoyl}-2-methylphenyl)-1,3-thiazole-5-carboxamide] | 7.10 | 8.14 | – | 5.92 | 6.68
Cc1ccc(C(=O)N[C@H]2CCCC[C@@H]2O)cc1NC(=O)c1cnc(NC2(C)CC2)s1 [Example 39, N-(5-{[(1S,2S)-2-hydroxycyclohexyl]carbamoyl}-2-methylphenyl)-2-[(1-methylcyclopropyl)amino]-1,3-thiazole-5-carboxamide] | 7.00 | 7.89 | – | 6.00 | 6.82
Cc1ccc(C(=O)N[C@H]2CCCC[C@@H]2O)cc1NC(=O)c1cnc(NC2(C)CCC2)s1 [Example 40, N-(5-{[(1S,2S)-2-hydroxycyclohexyl]carbamoyl}-2-methylphenyl)-2-[(1-methylcyclobutyl)amino]-1,3-thiazole-5-carboxamide] | 7.37 | 8.34 | – | 5.92 | 7.12
Cc1ccc(C(=O)N[C@H]2CCCC[C@@H]2O)cc1NC(=O)c1cnc(NCC(C)(C)C)s1 [Example 41, 2-[(2,2-dimethylpropyl)amino]-N-(5-{[(1S,2S)-2-hydroxycyclohexyl]carbamoyl}-2-methylphenyl)-1,3-thiazole-5-carboxamide] | 6.89 | 7.46 | – | 5.68 | 6.68
Cc1ccc(C(=O)N[C@H]2CCCC[C@@H]2O)cc1NC(=O)c1cncc(-c2cc(F)c(F)c(F)c2)c1 [Example 42, N-(5-{[(1S,2S)-2-hydroxycyclohexyl]carbamoyl}-2-methylphenyl)-5-(3,4,5-trifluorophenyl)pyridine-3-carboxamide] | 6.64 | 7.39 | – | 5.10 | 7.02
Cc1ccc(C(=O)N[C@H]2CCCC[C@@H]2O)cc1NC(=O)c1cncc(-c2ccc(C3CC3)cc2)c1 [Example 43, 5-(4-cyclopropylphenyl)-N-(5-{[(1S,2S)-2-hydroxycyclohexyl]carbamoyl}-2-methylphenyl)pyridine-3-carboxamide] | 7.64 | 7.77 | – | 6.19 | 7.14
O=C(Nc1cc(C(=O)N[C@H]2CCCC[C@@H]2O)ccc1Cl)c1cncc(OCC2CC2)c1 [Example 44, N-(2-chloro-5-{[(1S,2S)-2-hydroxycyclohexyl]carbamoyl}phenyl)-5-(cyclopropylmethoxy)pyridine-3-carboxamide] | 6.72 | 7.68 | – | 6.03 | 6.85
Cc1ccc(C(=O)N[C@H]2CCCC[C@@H]2O)cc1NC(=O)c1cnc2sccn12 [Example 45, N-(5-{[(1S,2S)-2-hydroxycyclohexyl]carbamoyl}-2-methylphenyl)imidazo[2,1-b][1,3]thiazole-5-carboxamide] | 7.82 | 9.10 | – | 7.04 | 7.25
Cc1c(F)cc(C(=O)N[C@H]2CCCC[C@@H]2O)cc1NC(=O)c1cncc(OCC2CC2)c1 [Example 46, 5-(cyclopropylmethoxy)-N-(3-fluoro-5-{[(1S,2S)-2-hydroxycyclohexyl]carbamoyl}-2-methylphenyl)pyridine-3-carboxamide] | 7.11 | 7.77 | – | 6.39 | 6.43
Cc1ccc(C(=O)N[C@H]2CCCC[C@@H]2O)cc1NC(=O)c1cncc(OC2CC(F)(F)C2)c1 [Example 47, 5-[(3,3-difluorocyclobutyl)oxy]-N-(5-{[(1S,2S)-2-hydroxycyclohexyl]carbamoyl}-2-methylphenyl)pyridine-3-carboxamide] | 6.41 | 7.12 | – | 5.15 | 6.46
